{"source": "patent US20260021106A1", "about": "“COMBINATION THERAPY FOR TREATING CANCERS” (GEISTLICH PHARMA AG, priority 2022, published 2026)", "key": {"[1]": {"system": "human endothelial cell (hEC) spheroids", "assay": "Spheroid assay, VEGF-induced endothelial sprouting", "type": "cell-based", "experimental": "A spheriod assay was performed including growing human endothelial cell (hEC) spheroids and adding VEGF (1000 cells/spheroid; 200 sph/condition) for 24 hours using a hanging drog procedure with methyl-cellulose, then harvesting, adding GP-2250, and suspending in fibrinogen/thrombin matrix. The suspension was then transferred to a 24 well plate and incubated for 24 hours at 37° C. FIG. 1: VEGF-induced Endothelial Sprouting: Impact of GP-2250, Spheroid assay. […] Tip cells form sprouts, and stalk cells form capillary lumen as shown in the image (bottom).\nFIG. 4 quantifies the effects of PBS control, Delta-like 4 (DLL4), and GP-2250 (at 2.5 μg/ml or at 10 μg/ml) on VEGF-induced endothelial cell sprouting."}, "OVCAR8-L": {"system": "OVCAR8-L", "assay": "In vivo therapy experiment, orthotopic OVCAR8-L ovarian cancer mouse model", "set-up": "species or system mice", "settings": "GP-2250 500 mg/kg 3 times per week, bevacizumab 6.25 mg/kg, take down day 49", "experimental": "FIG. 5 schematically illustrates the experimental design for in vivo testing of the GP-2250 and bevacizumab on OVCAR8-L mice. The experiment includes testing: 1) IgG control (10 mice, 6.25 mg/kg, BW); 2) GP-2250 (10 mice, 500 mg/kg. 3 times per week); 3) Bevacizumab (10 mice, 6.25 mg/kg, BW) (“BEV”); and 4) the combination of GP-2250 and Bevacizumab.\nTumorigenicity of OVCAR8-L was determined using IVIS imaging. IVIS imaging following OCVAR8-L injection. 1×10^6 cells were injected through i.p., and then tumorigenicity was measured. All mice were injected with high-grade ovarian cancer cells (OVCAR8) labeled with luciferase gene by i.p. route. All mice survived until the end of the study. No mice were euthanized due to the effect of tumor. Five weeks after treatment, all mice were euthanized, body weight was measured, and no significant body weight change in each group.\n(§1) In vivo model of ovarian cancer: Pharmacodynamic study and therapeutic experiment using OVCAR8 ovarian cancer model were performed. FIGS. 8A-8B show the cytotoxic effect of GP-2250 on ovarian cancer cells."}, "VEGF": {"system": "VEGF", "assay": "VEGF secretion in cancer cells", "type": "cell-based", "settings": "compared to vehicle", "source_text": "(§2) GP-2250 inhibits mTOR, AKT and HIF-1α expression."}, "HIF1α": {"system": "HIF1α", "assay": "Western blotting of ovarian cancer cells, HIF1α", "type": "cell-based, human", "settings": "treated 24 hours, Western blot", "experimental": "as §2\n(§3) Human Ovarian cancer cell lines: A2780, Coav3, HeyA8, HeyA8-MDR, Kuramochi, OVCAR3, OVCAR5, OVCAR8, and SKOV3 were obtained and used in studies.\n(§4) In vitro assays: Cell viability assay, Western blotting, Colony formation assay, Reverse-phase protein array, and Ultra-high resolution mass spectrometry analysis were performed."}, "mTOR [2]": {"system": "mTOR", "assay": "Western blotting of ovarian cancer cells, mTOR", "type": "cell-based, human", "settings": "treated 24 hours, Western blot", "experimental": "as §2, §3, §4"}, "AKT [3]": {"system": "AKT", "assay": "Western blotting of ovarian cancer cells, AKT", "type": "cell-based, human", "settings": "treated 24 hours, Western blot", "experimental": "as §2, §3, §4"}, "[4]": {"system": "hypoxia-inducible factor-la", "assay": "Reverse Phase Protein Array (RPPA), HIF-1α", "type": "cell-based, human", "experimental": "as §4"}, "AKT [5]": {"system": "AKT", "assay": "Reverse Phase Protein Array (RPPA), AKT", "type": "cell-based, human", "experimental": "as §4"}, "mTOR [6]": {"system": "mTOR", "assay": "Reverse Phase Protein Array (RPPA), mTOR", "type": "cell-based, human", "experimental": "as §4"}, "ovarian cancer cells": {"system": "ovarian cancer cells", "assay": "Cell viability assay / cytotoxic effect in ovarian cancer cell lines", "type": "cell-based, human", "experimental": "as §3, §4, §1"}, "hexokinase 2": {"system": "hexokinase 2", "assay": "Hexokinase activity and expression (ultra-high resolution mass spectrometry, FIG. 10)", "type": "cell-based, human", "experimental": "as §4\n(§5) (ns, not significant, **P<0.01; **P<0.001 (vs. control; Student t-test))."}, "cancer cells": {"system": "cancer cells", "assay": "Glycolysis and ATP synthesis in cancer cells", "type": "cell-based", "source_text": "as §5"}, "AKT [7]": {"system": "AKT", "assay": "In vivo pharmacodynamic experiment, OVCAR8 mouse model, AKT", "settings": "dose of 500 mg/kg", "experimental": "as §1\n(§6) FIGS. 11A-11B show pharmacodynamics studies of GP-2250."}, "mTOR [8]": {"system": "mTOR", "assay": "In vivo pharmacodynamic experiment, OVCAR8 mouse model, mTOR", "settings": "dose of 500 mg/kg", "experimental": "as §1, §6"}, "[9]": {"settings": "2.5 μg/ml or 10 μg/ml, compared to control"}}, "note": "“Also recorded” adds a separate entry of the source.", "data": [{"molecule": "O=S1(=O)CCOCN1", "note": "[GP-2250]", "values": [{"measurement": "number of sprouts per spheroid", "setting": "[1]; [9]", "result": "statistically significant reductions"}, {"measurement": "total sprout length", "setting": "[1]; [9]", "result": "statistically significant reductions"}, {"measurement": "VEGF-induced endothelial cell sprouting", "setting": "[1]; GP-2250 10 μg/ml, 24 hours", "result": "inhibits VEGF-induced endothelial cell sprouting"}, {"measurement": "nodules (tumor nodule number)", "setting": "OVCAR8-L", "result": "2.9±0.48"}, {"measurement": "tumor weight", "setting": "OVCAR8-L", "result": "2.9 ± 0.48", "unit": "g"}, {"measurement": "VEGF secretion in cancer cells", "setting": "VEGF", "result": "significantly reduced VEGF secretion"}, {"measurement": "HIF1α expression in cancer cells", "setting": "HIF1α", "result": "reduced HIF1α expression"}, {"measurement": "mTOR expression", "setting": "mTOR [2]", "result": "inhibits"}, {"measurement": "AKT expression", "setting": "AKT [3]", "result": "inhibits"}, {"measurement": "hypoxia-inducible factor-la activation and expression level", "setting": "[4]", "result": "inhibited"}, {"measurement": "AKT activation and expression level", "setting": "AKT [5]", "result": "inhibited"}, {"measurement": "mTOR activation and expression level", "setting": "mTOR [6]", "result": "inhibited"}, {"measurement": "apoptosis in ovarian cancer cells", "setting": "ovarian cancer cells", "result": "increased apoptosis"}, {"measurement": "proliferation in ovarian cancer cells", "setting": "ovarian cancer cells", "result": "reduced proliferation"}, {"measurement": "cancer cell viability", "setting": "ovarian cancer cells; FIG. 10D, with siRNA targeting hexokinase 1 and hexokinase 2", "result": "reduces cancer cell viability"}, {"measurement": "cytotoxic effect, vulnerability of HRD versus HRP ovarian cancer cells", "setting": "ovarian cancer cells; HRD (Kuramochi, OVCAR4, OVCAR8) vs HRP (A2780, OVCAR5), 10 ovarian cancer cell lines", "result": "more vulnerable to GP-2250 than Homologous Recombination Proficiency (HRP) ovarian cancer cells"}, {"measurement": "hexokinase activity and protein expression levels", "setting": "hexokinase 2; FIG. 10C", "result": "inhibits hexokinase activity and protein expression levels"}, {"measurement": "hexokinase 2 activity and expression", "setting": "hexokinase 2; ultra-high resolution mass spectrometry (HRMS) analysis", "result": "significantly reduced"}, {"measurement": "ATP synthesis in cancer cells", "setting": "cancer cells", "result": "reduced"}, {"measurement": "glycolysis in cancer cells", "setting": "cancer cells", "result": "decreases glycolysis; also recorded: reduced glycolysis"}, {"measurement": "downregulating AKT activation and expression", "setting": "AKT [7]", "result": "most effective"}, {"measurement": "downregulating mTOR activation and expression", "setting": "mTOR [8]", "result": "most effective"}]}, {"molecule": "bevacizumab: recombinant humanized monoclonal IgG1 antibody that specifically binds to and blocks the biological effects of VEGF [reference compound]", "values": [{"measurement": "nodules (tumor nodule number)", "setting": "OVCAR8-L", "result": "3.8±0.71"}, {"measurement": "tumor weight", "setting": "OVCAR8-L", "result": "0.43 ± 0.08", "unit": "g"}]}]}
